Holding throughout (assay): NCI tumour cell line growth inhibition, 48 h
The test system of assay [1] is HCT-116.
The test system of assay [2] is OVCAR-3.
In assay [3] the test system is LOX IMVI.
Assay [4] deals with M14.
Assay [5] relates to OVCAR-4.
Assay [6] concerns HT-29.
Assay [7] deals with SR.
The test system of assay [8] is BT-549.
The test system of assay [9] is 786-0.
Assay [10] relates to KM12.
Assay [11] concerns A549.
Assay [12] relates to U-251.
The test system of assay [13] is Hs-578T.
Assay [14] concerns Malme-3M.
The subject of assay [15] is SW-620.
The test system of assay [16] is SNB-75.
Assay [17] relates to UACC-62.
In assay [18] the test system is UO-31.
Assay [19] has as its system RPMI-8226.
Assay [20] relates to IGROV-1.

The values below come from ChEMBL document CHEMBL1201862, “PubChem BioAssay data set” (2004).

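Cultured in 96-well plates, cells were exposed to test compound for 48 hours across five concentrations. GI50: concentration for 50% inhibition of growth.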 Activity calls are given as the source filed them. Cut-off read from the data, not from the text of the source: active = GI50 up to about 1.1 µM and inactive = higher. Where only a bound is given, the exact number is not on record here.

With `Oc1ccc(-c2cc(-c3c(O)cc(O)cc3O)on2)cc1`, the GI50 was 42.5 µM (inactive) in [1]; > 100 µM (inactive) in assay [2]; 55.1 µM (inactive) in assay [3]; > 100 µM (inactive) in [4]; > 100 µM (inactive) in assay [5]; 37 µM (inactive) in assay [6]. Also, the GI50 is 81.3 µM (inactive) in assay [7]; 54.5 µM (inactive) in assay [8]; 93.5 µM (inactive) in assay [9]; 72.6 µM (inactive) in assay [10]; 54.2 µM (inactive) in [11]; 64.7 µM (inactive) in [12]. Besides, the GI50 in assay [13] was 38.2 µM (inactive); in assay [14], 70.5 µM (inactive); in [15] it was 65.6 µM (inactive); in assay [16], 74.5 µM (inactive); in assay [17], 31.3 µM (inactive); in assay [18], 53 µM (inactive). Moreover, the GI50 in [19] is 44.9 µM (inactive); in assay [20], 51.1 µM (inactive).
On to `CCOC(=O)[C@H]1C[C@]23CN(C(=O)OC(C)(C)C)CC[C@H]2CCC2(SCCCS2)[C@@H]3N1C`, for which the GI50 in assay [1] is 31.8 µM (inactive); in [2], 48.2 µM (inactive); in [3] it was 30.9 µM (inactive); in assay [4], 30.8 µM (inactive); in [5], 16 µM (inactive); in assay [6], 22.5 µM (inactive). For the same compound, the GI50 in assay [7] was 24 µM (inactive); in assay [8], 50.2 µM (inactive); in assay [9], 34.5 µM (inactive); in [10] it was 33.3 µM (inactive); in assay [11] it was 37.8 µM (inactive); in assay [12] it was 34.4 µM (inactive). Moreover, the GI50 in [13] is 51.6 µM (inactive); in assay [14], 28.4 µM (inactive); in assay [15] it was 47.8 µM (inactive); in assay [16], 72.9 µM (inactive); in assay [17], 40.5 µM (inactive); in assay [18], 37.8 µM (inactive). In addition, the GI50 in [19] is 20.4 µM (inactive); in assay [20], 49.9 µM (inactive).
As for `CSc1csc(-c2ccc(-c3ccc(-c4cc(SC)cs4)s3)s2)c1`, the GI50 in [1], in assay [2], in assay [3], in [4], in assay [5] and in assay [6] was > 100 µM (inactive) each time. The GI50 in [7], in [8], in assay [9], in assay [10], in assay [11] and in assay [12] was > 100 µM (inactive) each time. Further, the GI50 in [13], in [14], in assay [15], in assay [16], in assay [17] and in assay [18] was > 100 µM (inactive) in each case. The GI50 in assay [19] and in assay [20] was > 100 µM (inactive) throughout.
In the case of `CCOC(=O)c1cccc(NC(=O)CI)c1`, the GI50 was 0.301 µM (active) in [1]; 0.391 µM (active) in assay [2]; 0.123 µM (active) in [3]; 0.23 µM (active) in assay [4]; 0.5 µM (active) in assay [5]; 0.313 µM (active) in assay [6]. The GI50 was 0.0262 µM (active) in [7]; 0.381 µM (active) in [8]; 0.169 µM (active) in assay [9]; 1.67 µM (inactive) in assay [10]; 1.75 µM (inactive) in assay [11]; 0.313 µM (active) in assay [12]. In addition, the GI50 in assay [13] was 2.34 µM (inactive); in assay [14], 1.21 µM (inactive); in assay [15] it was 0.207 µM (active); in [16] it was 1.42 µM (inactive); in assay [17] it was 0.575 µM (active); in assay [18], 0.189 µM (active). Besides, the GI50 in assay [19] is 0.721 µM (active); in [20], 0.338 µM (active).
